Values joined by “and” are separate entries in the source; they are usually repeats but may differ in a detail not shown here. Equal entries are not always repeated.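 All cell lines were grown in 96-well plates and treated with compound for 48 hours. GI50: concentration for 50% inhibition of growth. The concentration for full growth arrest is given as TGI.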

Assay in all cases: growth of human tumour cells (NCI), 48 h
Assay [1] relates to A549 NSCLC.
Assay [2] relates to BT-549 breast.
Assay [3] relates to DU-145 prostate.
Assay [4] concerns HOP-62 NSCLC.
Assay [5] deals with M14 melanoma.
In assay [6] the test system is MALME-3M melanoma.
For assay [7], the system named is PC-3 prostate.
The subject of assay [8] is RPMI-8226 leukemia.
Assay [9] has as its system RXF 393 renal.
For assay [10], the system named is TK-10 renal.
Assay [11] relates to CAKI-1 renal.

Regarding `Clc1ccc(/C=C/c2nc(-c3ccc(Cl)cc3)cn3c2nc2ccccc23)cc1`, the TGI in assay [1], in [2], in assay [3], in [4], in assay [5] and in assay [6] was > 100 µM in each case. The TGI in assay [7], in [8], in assay [9] and in assay [10] was > 100 µM throughout.

For `O=S(=O)(c1ccccc1)[C@@H]1[C@H]2C=C[C@](CS)(O2)[C@H]1S(=O)(=O)c1ccccc1`, the TGI is > 100 µM in [1]; > 100 µM in assay [2]; 92.3 µM in [11]; > 100 µM in assay [3]; > 100 µM in assay [4]; > 100 µM in assay [5]. For the same molecule, the TGI in assay [6], in assay [7], in [9] and in assay [10] was > 100 µM throughout.

Regarding `Oc1ccc(NCc2cc(O)ccc2O)cc1`, the TGI in assay [1] is > 100 µM; in assay [2] it was 25.8 µM; in assay [11], 34.9 µM; in assay [3], 32.9 µM; in assay [4], 35.7 µM; in assay [5], 33.9 µM. The TGI in assay [6] came out at 34.3 µM; in assay [7], 28.4 µM; in assay [8] it was 44.4 µM; in assay [9] it was 28.8 µM; in assay [10], 30.4 µM.

Consider `CCOC(=O)c1c(SC)nc(-c2ccc(Cl)cc2)sc1=N`, for which the TGI in assay [1] is > 100 µM; in assay [2] it was > 100 µM; in assay [11], > 100 µM; in assay [3] it was > 100 µM; in assay [4] it was 95.7 µM; in assay [5] it was > 100 µM. The TGI in assay [6] was 49 µM; in [7], 61.9 µM; in [8], > 100 µM; in [9], > 100 µM; in assay [10], > 100 µM.

In the case of `COc1cccc2c1C(=O)c1c(O)c3c(c(O)c1C2=O)C[C@@](O)(C(C)=O)C[C@@H]3OC1CC(N(C)C)C(O)C(C)O1` (stereo partly specified), the GI50 was 0.0816 µM and 0.035 µM in [1]; 0.117 µM and < 0.0167 µM in [4]; 0.0437 µM in assay [5]; < 0.0159 µM in assay [8]; 0.0487 µM and < 0.0151 µM in assay [9]; 0.122 µM in assay [10]. The TGI in assay [1] is 0.423 µM and 1.65 µM; in assay [2] it was 0.00562 µM; in assay [11], 0.56 µM and 0.593 µM; in assay [3], 0.00739 µM; in [7] it was 0.00144 µM; in assay [8] it was 0.23 µM and 1.92 µM. This molecule returned a TGI in [10] of 1.34 µM.

Regarding `CC1C(O)[C@@]2(OC[C@@]34C(=O)CC5(O)[C@H](CCC6Cc7nc8c(nc7C[C@]65C)CC5CC[C@@H]6C7=C[C@H]9O[C@@]%10(O[C@@](C)(CO)C[C@@H]%10O)C(C)[C@@]9(O)[C@]7(C)[C@@H](O)CC6[C@]5(C)C8)C3=CC[C@H]4C2C)OC1(C)C` (stereo partly specified), the TGI in [1] was 0.494 µM; in assay [11] it was 0.977 µM; in assay [4], 0.0015 µM; in [6], 0.0275 µM; in assay [8], < 0.000355 µM; in assay [9], < 0.000355 µM.

On to `COc1cc(CCC(=O)O)c2cc3ccccc3cc2c1O`, for which the TGI was 52.6 µM in assay [1]; 30.9 µM in assay [2]; 33.8 µM in assay [11]; 32.7 µM in [4]; 42.6 µM in assay [5]; 32.3 µM in assay [6]. In addition, the TGI in [7] is 47.6 µM; in [8] it was 26.4 µM; in assay [10], 75.1 µM.

In the case of `O=NN(CCCl)C(=O)Nc1ccc(Cl)c(Cl)c1`, the TGI in [1], in assay [11], in assay [4], in assay [6], in assay [8] and in assay [9] was > 100 µM in each case.

With `O=[N+]([O-])c1ccc(/C=N/n2c(CCc3n[nH]c(=S)n3/N=C/c3ccc([N+](=O)[O-])o3)n[nH]c2=S)o1`, the TGI in assay [11] is 44.8 µM; in [3], 29.7 µM; in assay [4] it was 69.8 µM; in assay [5], 36.1 µM; in assay [7] it was > 100 µM; in assay [8] it was > 100 µM. Also, the TGI in assay [9] was 32.1 µM; in [10] it was > 100 µM.

Turning to `O=C1CSc2sc(=S)sc2S1`, the TGI in assay [1], in [4], in assay [6], in assay [8] and in assay [9] was > 100 µM throughout.

With `O=[P+](O)c1cccs1`, the TGI in [1], in assay [11], in [5], in assay [8], in assay [9] and in [10] was > 100 µM in each case.

Turning to `CC(C)(C)OC(=O)N1CCCC1C(=O)NCCNc1ccc(NCCNC(=O)C2CCCN2C(=O)OC(C)(C)C)c2c1C(=O)c1ccccc1C2=O` (stereo unspecified), the TGI in assay [1] amounted to 33.9 µM; in [2], 25.7 µM; in assay [11], 36.9 µM; in [4] it was 33.2 µM; in assay [5] it was 29.8 µM; in assay [6], 33 µM. The TGI worked out at 26.4 µM in assay [7], 0.0538 µM in assay [8] and 49.1 µM in [10].

As for `Cc1ccc(NC(=O)CC(=O)n2nc(-c3ccccc3)c(N=Nc3ccccc3C(=O)O)c2-c2ccccc2)cc1`, the TGI in [1], in assay [11], in [4], in assay [6], in assay [8] and in assay [9] was > 100 µM throughout. In addition, in [10], the TGI was > 100 µM.

The values above are taken from PubChem BioAssay (NCI).
